Measured values published in patent publication US20260217767A1, “NOVEL A4B7 THIOETHER PEPTIDE DIMER ANTAGONISTS” (Protagonist Therapeutics, Inc., priority 2014, published 2026).
Where a SMILES comes first, the peptide text is derived from it.

These compounds were tested against T1, rh integrin α4β7 (Homo sapiens, UniProt P13612+P26010) (assay: α4β7-MAdCAM Competition ELISA). Conditions: thioether monomer peptides, Table 6; read-out: ELISA A4B7.
T1 construct: purchased R&D Systems 5397-A30
T1 sequence (P13612 34-977 limits assumed): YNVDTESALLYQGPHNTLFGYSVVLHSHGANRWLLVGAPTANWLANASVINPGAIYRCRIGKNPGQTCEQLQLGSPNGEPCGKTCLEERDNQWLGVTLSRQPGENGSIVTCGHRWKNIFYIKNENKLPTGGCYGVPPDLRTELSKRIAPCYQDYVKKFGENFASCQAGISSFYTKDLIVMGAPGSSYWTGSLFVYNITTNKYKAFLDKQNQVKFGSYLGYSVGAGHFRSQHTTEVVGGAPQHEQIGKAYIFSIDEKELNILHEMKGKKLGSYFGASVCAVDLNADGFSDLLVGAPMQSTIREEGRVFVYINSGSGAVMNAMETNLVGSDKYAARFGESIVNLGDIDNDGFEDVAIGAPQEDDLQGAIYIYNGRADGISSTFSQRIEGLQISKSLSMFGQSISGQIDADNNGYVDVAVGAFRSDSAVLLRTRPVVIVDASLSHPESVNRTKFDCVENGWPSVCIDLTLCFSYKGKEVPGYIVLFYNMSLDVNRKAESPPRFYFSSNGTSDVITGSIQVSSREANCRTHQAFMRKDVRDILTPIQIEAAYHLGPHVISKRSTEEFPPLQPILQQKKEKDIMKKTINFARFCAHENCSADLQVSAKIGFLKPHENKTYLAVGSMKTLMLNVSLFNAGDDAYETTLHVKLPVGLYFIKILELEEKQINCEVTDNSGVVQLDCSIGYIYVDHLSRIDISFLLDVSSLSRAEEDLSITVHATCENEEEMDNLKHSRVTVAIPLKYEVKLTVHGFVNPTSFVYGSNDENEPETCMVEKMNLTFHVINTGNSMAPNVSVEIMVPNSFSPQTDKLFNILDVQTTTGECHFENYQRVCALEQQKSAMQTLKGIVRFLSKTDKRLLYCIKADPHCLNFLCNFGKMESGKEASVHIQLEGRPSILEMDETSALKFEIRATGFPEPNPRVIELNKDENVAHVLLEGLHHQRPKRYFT
T1 sequence (P26010 20-723 limits assumed): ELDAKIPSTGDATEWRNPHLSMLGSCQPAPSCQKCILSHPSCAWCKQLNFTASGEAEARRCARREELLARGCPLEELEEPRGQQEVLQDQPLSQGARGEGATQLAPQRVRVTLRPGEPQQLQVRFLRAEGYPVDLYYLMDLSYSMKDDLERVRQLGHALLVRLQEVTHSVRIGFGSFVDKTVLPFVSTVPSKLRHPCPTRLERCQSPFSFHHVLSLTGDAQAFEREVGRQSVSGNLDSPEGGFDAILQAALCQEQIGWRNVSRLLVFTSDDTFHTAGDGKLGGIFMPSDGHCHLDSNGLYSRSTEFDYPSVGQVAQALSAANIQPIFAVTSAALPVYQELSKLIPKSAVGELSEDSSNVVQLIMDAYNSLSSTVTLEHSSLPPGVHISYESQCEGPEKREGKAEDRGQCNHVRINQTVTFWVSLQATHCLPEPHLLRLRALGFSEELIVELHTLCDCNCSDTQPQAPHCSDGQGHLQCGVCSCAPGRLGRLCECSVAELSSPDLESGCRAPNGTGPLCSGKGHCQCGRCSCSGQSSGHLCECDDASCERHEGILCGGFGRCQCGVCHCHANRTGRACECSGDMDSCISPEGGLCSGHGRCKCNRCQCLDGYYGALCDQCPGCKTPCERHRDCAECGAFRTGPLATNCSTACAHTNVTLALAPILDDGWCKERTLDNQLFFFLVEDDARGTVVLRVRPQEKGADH
Assay type: binding
Description: α4β7-MAdCAM Competition ELISA A nickel coated plate (Pierce #15442) was coated with rh integrin α4β[…] Systems #5397-A30) at 800 ng/well and incubated at room temperature with shaking for 1 hr. The solution was then removed by shaking and blocked with assay buffer (50 mM Tris-HCl pH7.6, 150 mM NaCl, 1 mM MnCl2 or MgCl2, 0.05% Tween-20 and 0.5% BSA) at 250 ul/well. The plate was then incubated at room temperature for 1 hr. Each well was washed 3 times with wash buffer (50 mM Tris-HCl pH7.6, 100 mM NaCl, 1 mM MnCl2 or MgCl2, 0.05% Tween-20). To each well was added 25 ul of a serial dilution (3-fold dilutions in assay buffer) of peptides starting at 20 μM. 25 ul of recombinant human MAdCAM-1 (R&D Systems #6056-MC) was then added to each well at a fixed concentration 20 nM. The final starting peptide concentration was 10 μM, and the final MAdCAM-1 concentration was 10 nM. The plates were then incubated at room temperature for 1 hr to reach binding equilibrium. The wells were then washed three times with wash buffer. 50 ul of mouse anti-human IgG1-HRP (Invitrogen #A10648) diluted in 1:2000 in assay buffer was then added to each well. The wells were incubated at room temperature for 45 min with shaking. The wells were then washed 3 times with wash buffer. 100 ul of TMB were then added to each well and closely observe during development time. The reaction was stopped with 2N H2SO4 and absorbance was read at 450 nm.

Q: `CC(C)C[C@@H]1NC(=O)[C@H]([C@@H](C)O)NC(=O)[C@H](CC(=O)O)NC(=O)[C@H](CO)NC(=O)[C@H](CCCNC(=N)N)N(C)C(=O)C(C)SC(C)(C)[C@@H](C(=O)N[C@@H](Cc2c[nH]c3ccccc23)C(=O)N[C@H](CCCCN)C(N)=O)NC1=O` (single isomer, unassigned) [compound 54] was tested. Which IC50 did it give?
A: Its IC50 is > 1 µM.

Q: For `CC(C)C[C@@H]1NC(=O)[C@H]([C@@H](C)O)NC(=O)[C@H](CC(=O)O)NC(=O)[C@H](CO)NC(=O)[C@H](CCCNC(=N)N)N(C)C(=O)C(C)(C)SC[C@@H](C(=O)N[C@@H](Cc2c[nH]c3ccccc23)C(=O)N[C@H](CCCCN)C(N)=O)NC1=O` [compound 52], which IC50 is on record?
A: Its IC50 is > 1 µM.

Q: Which IC50 does the source give for `CC(C)C[C@@H]1NC(=O)[C@H]([C@@H](C)O)NC(=O)[C@H](CC(=O)O)NC(=O)[C@H](CO)NC(=O)[C@H](CCCNC(=N)N)N(C)C(=O)c2ccccc2CSC(C)(C)[C@@H](C(=O)N[C@@H](Cc2ccc(O)cc2)C(=O)N[C@H](CCC(=O)O)C(=O)N[C@H](CCCCN)C(N)=O)NC1=O` [compound 79] (HELM PEPTIDE1{[meR].S.D.T.L.[Pen].Y.[dE].[dK].[am]}|CHEM1{[O=C(c1ccccc1C[*:2])[*:1]]}$PEPTIDE1,CHEM1,1:R1-1:R1|PEPTIDE1,CHEM1,6:R3-1:R2$$$V2.0) here?
A: Its IC50 is < 0.025 µM.

Q: How did the IC50 turn out when `CC(=O)NCCCC[C@@H](NC(=O)C[C@H](CCC(=O)O)NC(=O)[C@H](Cc1c[nH]c2ccccc12)NC(=O)[C@H]1NC(=O)[C@H](CC(C)C)NC(=O)[C@H]([C@@H](C)O)NC(=O)[C@H](CC(=O)O)NC(=O)[C@H](CO)NC(=O)[C@H](CCCNC(=N)N)N(C)C(=O)c2ccccc2CSC1(C)C)C(N)=O` [compound 83] (HELM PEPTIDE1{[meR].S.D.T.L.[Pen].W.[O=C(O)CC[C@@H](CC(=O)[*:2])N[*:1]].[dK].[am]}|PEPTIDE2{[ac]}|CHEM1{[O=C(c1ccccc1C[*:2])[*:1]]}$PEPTIDE1,PEPTIDE2,9:R3-1:R2|PEPTIDE1,CHEM1,1:R1-1:R1|PEPTIDE1,CHEM1,6:R3-1:R2$$$V2.0) was run?
A: The IC50 was < 0.025 µM.

Q: How did the IC50 turn out when `CC(=O)NCCCC[C@H](C(N)=O)N(C)C(=O)[C@H](CCC(=O)O)NC(=O)[C@H](Cc1c[nH]c2ccccc12)NC(=O)[C@H]1NC(=O)[C@H](CC(C)C)NC(=O)[C@H]([C@@H](C)O)NC(=O)[C@H](CC(=O)O)NC(=O)[C@H](CO)NC(=O)[C@H](CCCNC(=N)N)N(C)C(=O)c2ccccc2CSC1(C)C` [compound 84] (HELM PEPTIDE1{[meR].S.D.T.L.[Pen].W.E.[CN([C@H](CCCCN[*:3])C(=O)[*:2])[*:1]].[am]}|PEPTIDE2{[ac]}|CHEM1{[O=C(c1ccccc1C[*:2])[*:1]]}$PEPTIDE1,PEPTIDE2,9:R3-1:R2|PEPTIDE1,CHEM1,1:R1-1:R1|PEPTIDE1,CHEM1,6:R3-1:R2$$$V2.0) was run?
A: Its IC50 is < 0.025 µM.

Q: How did the IC50 turn out when `CC(=O)NCCCC[C@@H](C(N)=O)N(C)C(=O)[C@H](Cc1ccc(O)cc1)NC(=O)[C@H](Cc1c[nH]c2ccccc12)NC(=O)[C@H]1NC(=O)[C@H](CC(C)C)NC(=O)[C@H]([C@@H](C)O)NC(=O)[C@H](CC(=O)O)NC(=O)[C@H](CO)NC(=O)[C@H](CCCNC(=N)N)N(C)C(=O)c2ccccc2CSC1(C)C` [compound 85] (HELM PEPTIDE1{[meR].S.D.T.L.[Pen].W.Y.[CN([C@@H](CCCCN[*:3])C(=O)[*:2])[*:1]].[am]}|PEPTIDE2{[ac]}|CHEM1{[O=C(c1ccccc1C[*:2])[*:1]]}$PEPTIDE1,PEPTIDE2,9:R3-1:R2|PEPTIDE1,CHEM1,1:R1-1:R1|PEPTIDE1,CHEM1,6:R3-1:R2$$$V2.0) was run?
A: The IC50 was < 0.025 µM.

Q: For `CCCC[C@@H]1NC(=O)[C@H]([C@@H](C)O)NC(=O)[C@H](CC(=O)O)NC(=O)[C@H](CO)NC(=O)[C@H](CCCNC(=N)N)N(C)C(=O)c2ccccc2CSC(C)(C)[C@@H](C(=O)N[C@@H](Cc2c[nH]c3ccccc23)C(=O)N[C@@H](CCC(=O)O)C(=O)N[C@H](CCCCNC(C)=O)C(N)=O)NC1=O` [compound 86] (HELM PEPTIDE1{[meR].S.D.T.[Nle].[Pen].W.E.[dK].[am]}|PEPTIDE2{[ac]}|CHEM1{[O=C(c1ccccc1C[*:2])[*:1]]}$PEPTIDE1,PEPTIDE2,9:R3-1:R2|PEPTIDE1,CHEM1,1:R1-1:R1|PEPTIDE1,CHEM1,6:R3-1:R2$$$V2.0), which IC50 is on record?
A: The IC50 was < 0.025 µM.

Q: `CC(=O)NCCCC[C@@H](NC(=O)[C@@H](CCC(=O)O)NC(=O)[C@H](Cc1ccccc1)NC(=O)[C@H]1NC(=O)[C@H](CC(C)C)NC(=O)[C@H]([C@@H](C)O)NC(=O)[C@H](CC(=O)O)NC(=O)[C@H](CO)NC(=O)[C@H](CCCNC(=N)N)N(C)C(=O)c2ccccc2CSC1(C)C)C(N)=O` [compound 87] (HELM PEPTIDE1{[meR].S.D.T.L.[Pen].F.[dE].[dK].[am]}|PEPTIDE2{[ac]}|CHEM1{[O=C(c1ccccc1C[*:2])[*:1]]}$PEPTIDE1,PEPTIDE2,9:R3-1:R2|PEPTIDE1,CHEM1,1:R1-1:R1|PEPTIDE1,CHEM1,6:R3-1:R2$$$V2.0) was tested. Which IC50 did it give?
A: The IC50 was < 0.025 µM.

Q: For `CC(=O)NCCCC[C@@H](NC(=O)[C@H](CCC(=O)O)NC(=O)[C@H](Cc1ccc(O)cc1)NC(=O)[C@H]1NC(=O)[C@H](CC(C)C)NC(=O)[C@H]([C@@H](C)O)NC(=O)[C@H](CC(=O)O)NC(=O)[C@H](CO)NC(=O)[C@H](CCCNC(=N)N)N(C)C(=O)c2ccccc2CSC1(C)C)C(N)=O` [compound 90] (HELM PEPTIDE1{[meR].S.D.T.L.[Pen].Y.E.[dK].[am]}|PEPTIDE2{[ac]}|CHEM1{[O=C(c1ccccc1C[*:2])[*:1]]}$PEPTIDE1,PEPTIDE2,9:R3-1:R2|PEPTIDE1,CHEM1,1:R1-1:R1|PEPTIDE1,CHEM1,6:R3-1:R2$$$V2.0), which IC50 is on record?
A: Its IC50 is < 0.025 µM.

Q: Which IC50 does the source give for `CC(C)C[C@H](NC(=O)[C@@H](CCC(=O)O)NC(=O)[C@H](Cc1c[nH]c2ccccc12)NC(=O)[C@H]1NC(=O)[C@H](CC(C)C)NC(=O)[C@H]([C@@H](C)O)NC(=O)[C@H](CC(=O)O)NC(=O)[C@H](CO)NC(=O)[C@H](CCCNC(=N)N)N(C)C(=O)c2ccccc2CSC1(C)C)C(N)=O` [compound 99] (HELM PEPTIDE1{[meR].S.D.T.L.[Pen].W.[dE].L.[am]}|CHEM1{[O=C(c1ccccc1C[*:2])[*:1]]}$PEPTIDE1,CHEM1,1:R1-1:R1|PEPTIDE1,CHEM1,6:R3-1:R2$$$V2.0) here?
A: The IC50 was < 0.025 µM.

Q: `CC(C)C[C@@H]1NC(=O)[C@H]([C@@H](C)O)NC(=O)[C@H](CC(=O)O)NC(=O)[C@H](CO)NC(=O)[C@H](CCCNC(=N)N)N(C)C(=O)c2ccccc2CSC(C)(C)[C@@H](C(=O)N[C@@H](Cc2c[nH]c3ccccc23)C(=O)N[C@H](CCC(=O)O)C(=O)N[C@@H](CCC(N)=O)C(N)=O)NC1=O` [compound 103] (HELM PEPTIDE1{[meR].S.D.T.L.[Pen].W.[dE].Q.[am]}|CHEM1{[O=C(c1ccccc1C[*:2])[*:1]]}$PEPTIDE1,CHEM1,1:R1-1:R1|PEPTIDE1,CHEM1,6:R3-1:R2$$$V2.0) was tested. Which IC50 did it give?
A: Its IC50 is < 0.025 µM.
